In one assay the test system is B. licheniformis PA. Description: Antibiogram by disc diffusion method. The assay is classed as cell-based, Bacillus licheniformis. (Agar diffusion results depend on both activity and mobility in agar.)
The subject of another assay is B. subtilis HE. Description: Antibiogram by disc diffusion method. The assay is classed as cell-based, Bacillus subtilis. Conditions: for Zone of inhibition: 6 mm antibiotic discs, Mueller-Hinton plates, 18 hours at 37° C., strain B. subtilis HE.
The mark [1] stands for this setting: 6 mm antibiotic discs, Mueller-Hinton plates, 18 hours at 37° C., strain B. licheniformis PA.

Where two headings read alike, the source gives them in different places.

Turning to `CC1(C)S[C@@H]2[C@H](NC(=O)C(C(=O)O)c3ccccc3)C(=O)N2[C@H]1C(=O)O` (stereo partly shown) [Carbenicillin], the Zone of inhibition in the assay with B. licheniformis PA (setting [1]) is on record as 18 ± 0.3 mm; in the assay on B. subtilis HE, 24 ± 0.4 mm. The “Sensitivity or resistance of the strain to the antibiotic (in words)” value (from here on “Sensitivity or resistance of the strain”) in the assay on B. licheniformis PA (strain B. licheniformis PA) and with B. subtilis HE was “sensitive” throughout.
Take `CCC[C@@H]1C[C@@H](C(=O)N[C@@H]([C@H]2O[C@H](SC)[C@H](O)[C@@H](O)[C@H]2O)[C@H](C)Cl)N(C)C1` [Clindamycin]: the Zone of inhibition in the assay on B. licheniformis PA (setting [1]) came out at 0 mm; in the assay with B. subtilis HE, 10 ± 0.3 mm.
The corresponding values for `O=C1CN(/N=C/c2ccc([N+](=O)[O-])o2)C(=O)N1` [Nitrofurantoin] are 18 ± 0.1 mm and 16 ± 0.2 mm.
The corresponding values for `CC(=O)OCC1=C(C(=O)O)N2C(=O)[C@@H](NC(=O)Cc3cccs3)[C@H]2SC1` [Cephalothin] are 20 ± 0.4 mm and 32 ± 0.5 mm.
The like results for `NC[C@H]1O[C@H](O[C@H]2[C@H](O)[C@@H](O[C@H]3O[C@H](CO)[C@@H](O)[C@H](N)[C@H]3O)[C@H](N)C[C@@H]2N)[C@H](O)[C@@H](O)[C@@H]1O` [Kanamycin] were, in that order, 20 ± 0.1 mm and 23 ± 0.1 mm.
On to `O=C(N[C@H](CO)[C@H](O)c1ccc([N+](=O)[O-])cc1)C(Cl)Cl` [Chloramphenicol], for which the Zone of inhibition in the assay with B. licheniformis PA (setting [1]) is given as 10 ± 0.1 mm; with B. subtilis HE it was 16 ± 0.2 mm.
With `COc1cccc(OC)c1C(=O)N[C@@H]1C(=O)N2[C@@H]1SC(C)(C)[C@@H]2C(=O)O` [Methicillin], the Zone of inhibition in the assay on B. licheniformis PA (setting [1]) turned out to be 0 mm; with B. subtilis HE, 18 ± 0.1 mm. Besides, the “Sensitivity or resistance of the strain” value was “resistant” in the assay on B. licheniformis PA (strain B. licheniformis PA) and “sensitive” with B. subtilis HE.
As to `CO[C@@]1(NC(=O)C(C(=O)O)c2ccc(O)cc2)C(=O)N2C(C(=O)O)=C(CSc3nnnn3C)CO[C@@H]21` (stereo partly shown) [Moxalactam], the Zone of inhibition in the assay on B. licheniformis PA (setting [1]) and with B. subtilis HE was 12 ± 0.3 mm each time.
The molecule Polymyxin E showed a Zone of inhibition in the assay on B. licheniformis PA (setting [1]) of 0 mm. Also, in the assay with B. subtilis HE, the “Sensitivity or resistance of the strain” value is reported as “sensitive” and the Zone of inhibition came to 10 ± 0.1 mm.
`C[C@@H](O)[C@H]1C(=O)N2C(C(=O)O)=C(SCCN=CN)C[C@H]12` [Imipenem]: the Zone of inhibition in the assay on B. licheniformis PA (setting [1]) is 32 ± 0.3 mm; with B. subtilis HE, 36 ± 0.4 mm.
On to `CO/N=C(\C(=O)N[C@@H]1C(=O)N2C(C(=O)O)=C(CSc3nc(=O)c(=O)[nH]n3C)CS[C@H]12)c1csc(N)n1` [Ceftriaxon], for which the Zone of inhibition was 12 ± 0.2 mm in the assay on B. licheniformis PA (setting [1]) and 18 ± 0.3 mm with B. subtilis HE.
The corresponding values for `CCN1CCN(C(=O)N[C@@H](C(=O)N[C@@H]2C(=O)N3C(C(=O)O)=C(CSc4nnnn4C)CS[C@H]23)c2ccc(O)cc2)C(=O)C1=O` [Cefoperazon] are 12 ± 0.2 mm and 16 ± 0.1 mm.
The corresponding values for `CO/N=C(\C(=O)N[C@@H]1C(=O)N2C(C(=O)O)=C(COC(C)=O)CS[C@H]12)c1csc(N)n1` [Cefotaxim] are 10 ± 0.2 mm and 14 ± 0.2 mm.
The corresponding values for `CC1(C)S[C@@H]2[C@H](NC(=O)[C@H](NC(=O)N3CCN(S(C)(=O)=O)C3=O)c3ccccc3)C(=O)N2[C@H]1C(=O)O` [Mezlocillin] are 17 ± 0.2 mm and 20 ± 0.3 mm.
Consider `CC1(C)S[C@@H]2[C@H](NC(=O)Cc3ccccc3)C(=O)N2[C@H]1C(=O)O` [Benzylpenicillin], for which the Zone of inhibition with B. licheniformis PA (setting [1]) was 0 mm. In the assay with B. subtilis HE, the “Sensitivity or resistance of the strain” value is given as “sensitive” and the Zone of inhibition was found to be 8 ± 0.1 mm.
Consider `CO[C@@]1(NC(=O)Cc2cccs2)C(=O)N2C(C(=O)O)=C(COC(N)=O)CS[C@@H]21` [Cefoxitin], for which the Zone of inhibition in the assay on B. licheniformis PA (setting [1]) is 12 ± 0.3 mm; in the assay on B. subtilis HE, 16 ± 0.3 mm.
`COc1cc(Cc2cnc(N)nc2N)cc(OC)c1OC` [Trimethoprim]: the Zone of inhibition with B. licheniformis PA (setting [1]) and in the assay on B. subtilis HE was 24 ± 0.1 mm in each case.
For the molecule `NC[C@H]1O[C@H](O[C@H]2[C@H](O)[C@@H](O[C@H]3O[C@H](CO)[C@@H](O)[C@H](N)[C@H]3O)[C@H](N)C[C@@H]2N)[C@H](N)C[C@@H]1O` [Tobramycin], the Zone of inhibition in the assay on B. licheniformis PA (setting [1]) was 20 ± 0.2 mm; with B. subtilis HE, 24 ± 0.3 mm.
As to `C[C@H]1[C@H](NC(=O)/C(=N\OC(C)(C)C(=O)O)c2csc(N)n2)C(=O)N1S(=O)(=O)O` [Aztreonam], the Zone of inhibition in the assay with B. licheniformis PA (setting [1]) and in the assay on B. subtilis HE was 0 mm in each case. For the same molecule, the “Sensitivity or resistance of the strain” value in the assay with B. subtilis HE is “resistant”.
Regarding `CO/N=C(\C(=O)N[C@@H]1C(=O)N2C(C(=O)O)=C(COC(N)=O)CS[C@H]12)c1ccco1` [Cefuroxim], the Zone of inhibition with B. licheniformis PA (setting [1]) and in the assay on B. subtilis HE was 0 mm each time. For the same molecule, the “Sensitivity or resistance of the strain” value with B. licheniformis PA (strain B. licheniformis PA) and in the assay on B. subtilis HE was “resistant” each time.
Take `Cc1onc(-c2ccccc2)c1C(=O)N[C@@H]1C(=O)N2[C@@H]1SC(C)(C)[C@@H]2C(=O)O` [Oxacillin]: the results for the Zone of inhibition in the assay on B. licheniformis PA (setting [1]) and in the assay with B. subtilis HE were 0 mm and 14 ± 0.3 mm, respectively. Moreover, the “Sensitivity or resistance of the strain” value in the assay on B. subtilis HE is reported as “sensitive”.
For the molecule `CC1(C)S[C@@H]2[C@H](NC(=O)[C@H](NC(=O)N3CCNC3=O)c3ccccc3)C(=O)N2[C@H]1C(=O)O` [Azlocillin], the values for the Zone of inhibition in the assay on B. licheniformis PA (setting [1]) and in the assay on B. subtilis HE were 16 ± 0.1 mm and 18 ± 0.2 mm, respectively.
The molecule `CC(C)(O/N=C(\C(=O)N[C@@H]1C(=O)N2C(C(=O)[O-])=C(C[n+]3ccccc3)CS[C@H]12)c1csc(N)n1)C(=O)O` [Ceftazidim] showed a Zone of inhibition in the assay on B. licheniformis PA (setting [1]) of 0 mm. In the assay with B. subtilis HE, the “Sensitivity or resistance of the strain” value is “sensitive” and the Zone of inhibition was determined as 8 ± 0.2 mm.
`CC1(C)S[C@@H]2[C@H](NC(=O)[C@H](N)c3ccc(O)cc3)C(=O)N2[C@H]1C(=O)O` [Amoxicillin]: the Zone of inhibition with B. licheniformis PA (setting [1]) is 16 ± 0.1 mm; in the assay with B. subtilis HE, 18 ± 0.1 mm.
As to `CN(C)[C@@H]1C(O)=C(C(N)=O)C(=O)[C@@]2(O)C(O)=C3C(=O)c4c(O)cccc4[C@@](C)(O)[C@H]3C[C@@H]12` [Tetracycline], the Zone of inhibition in the assay on B. licheniformis PA was found to be 24 ± 0.2 mm; with B. subtilis HE, 24 ± 0.3 mm.
As to `CC1(C)S[C@@H]2[C@H](NC(=O)[C@H](N)c3ccccc3)C(=O)N2[C@H]1C(=O)O` [Ampicillin], the Zone of inhibition in the assay with B. licheniformis PA (setting [1]) was 0 mm; in the assay with B. subtilis HE, 10 ± 0.3 mm. For the same molecule, the “Sensitivity or resistance of the strain” value in the assay on B. licheniformis PA (strain B. licheniformis PA) was “resistant”; with B. subtilis HE, “sensitive”.
As to `Cn1nnnc1SCC1=C(C(=O)O)N2C(=O)[C@@H](NC(=O)[C@H](O)c3ccccc3)[C@H]2SC1` [Cefamandol], the Zone of inhibition is 16 ± 0.1 mm with B. licheniformis PA (setting [1]) and 37 ± 0.1 mm in the assay on B. subtilis HE.
The like results for `CCn1cc(C(=O)O)c(=O)c2cc(F)c(N3CCNCC3)cc21` [Norfloxacin] were, in that order, 24 ± 0.2 mm and 24 ± 0.2 mm.
On to Bactrim, for which the values for the Zone of inhibition in the assay with B. licheniformis PA (setting [1]) and in the assay with B. subtilis HE were 30 ± 0.1 mm and 30 ± 0.2 mm, respectively.
As for Gentamycin, the Zone of inhibition with B. licheniformis PA (setting [1]) was 20 ± 0.1 mm; in the assay with B. subtilis HE, 24 ± 0.2 mm.
Consider `CN[C@H](CC(C)C)C(=O)N[C@H]1C(=O)N[C@@H](CC(N)=O)C(=O)N[C@H]2C(=O)N[C@H]3C(=O)N[C@H](C(=O)N[C@H](C(=O)O)c4cc(O)cc(O)c4-c4cc3ccc4O)[C@H](O)c3ccc(c(Cl)c3)Oc3cc2cc(c3O[C@@H]2O[C@H](CO)[C@@H](O)[C@H](O)[C@H]2O[C@H]2C[C@](C)(N)[C@H](O)[C@H](C)O2)Oc2ccc(cc2Cl)[C@H]1O` [Vancomycin], for which the Zone of inhibition with B. licheniformis PA and in the assay on B. subtilis HE was 12 ± 0.1 mm each time.
As to `CC1(C)S[C@@H]2[C@H](NC(=O)[C@H](C(=O)O)c3ccsc3)C(=O)N2[C@H]1C(=O)O` [Ticarcillin], the Zone of inhibition came to 20 ± 0.1 mm in the assay with B. licheniformis PA (setting [1]) and 24 ± 0.4 mm in the assay on B. subtilis HE. The “Sensitivity or resistance of the strain” value with B. licheniformis PA (strain B. licheniformis PA) and with B. subtilis HE was “sensitive” each time.
In the case of `CCN1CCN(C(=O)N[C@@H](C(=O)N[C@@H]2C(=O)N3[C@@H]2SC(C)(C)[C@@H]3C(=O)O)c2ccccc2)C(=O)C1=O` [Piperacillin], the Zone of inhibition in the assay on B. licheniformis PA (setting [1]) is 12 ± 0.1 mm; in the assay on B. subtilis HE, 18 ± 0.3 mm.
`NCC[C@H](O)C(=O)N[C@@H]1C[C@H](N)[C@@H](O[C@H]2O[C@H](CN)[C@@H](O)[C@H](O)[C@H]2O)[C@H](O)[C@H]1O[C@H]1O[C@H](CO)[C@@H](O)[C@H](N)[C@H]1O` [Amikacin]: the Zone of inhibition in the assay on B. licheniformis PA (setting [1]) was determined as 18 ± 0.1 mm; with B. subtilis HE, 20 ± 0.2 mm.
Turning to `CO/N=C(\C(=O)N[C@@H]1C(=O)N2C(C(=O)O)=CCS[C@H]12)c1csc(N)n1` [Ceftizoxim], the Zone of inhibition in the assay on B. licheniformis PA (setting [1]) and in the assay on B. subtilis HE was 0 mm throughout.
